Laboratory results published in patent US11629171B2, “Beta-hairpin peptidomimetics” (POLYPHOR AG, priority 2017, dated 2023).
Values after ≈ are worked out from the molar mass of the structure shown. Where a SMILES comes first, the peptide text is derived from it. Bridges are numbered along the chain shown (N, C = ends). Roman numbers before positions name the chains, in order. [ ]: non-standard residue; d: D form. The star is where a group is joined. Thr(ol) = C[C@@H](O)[C@H](N)CO; Tle = CC(C)(C)[C@H](N)C(=O)O; Hiv = CC(C)[C@H](O)C(=O)O; Isovaleryl = CC(C)CC(=O)*; dDab = NCC[C@@H](N)C(=O)O; hSer = N[C@@H](CCO)C(=O)O; NHCH(CH2OH)2 = OCC(CO)N*; Dab = NCC[C@H](N)C(=O)O; Dap = NC[C@H](N)C(=O)O; Propionyl = CCC(=O)*

Assays:
Assay type in all cases: cell-based
[1] = test system: Acinetobacter baumannii 872842; conditions: 872842
Outline: (§1)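 MIC in μg/mL, read as no visible growth after 18-20 hours at 35° C. Peptides were serially diluted two-fold in MH-II broth plus P-80 (0.002% final, v/v) and inoculated at about 10^6 CFU/mL following the CLSI broth microdilution standard.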

[2] = test system: Acinetobacter baumannii DSM 30008; conditions: DSM 30008
Outline: as §1

[3] = test system: Enterobacter cloacae 848840; conditions: 848840
Outline: as §1

Escherichia coli 926415 = conditions: 926415
Outline: as §1

[4] = test system: Escherichia coli ATCC 25922; conditions: ATCC 25922
Outline: as §1

[5] = test system: Klebsiella pneumoniae 968733; conditions: 968733
Outline: as §1

[6] = test system: Klebsiella pneumoniae SSI #3010; conditions: SSI #3010
Outline: as §1

[7] = test system: Pseudomonas aeruginosa ATCC 27853; conditions: ATCC 27853
Outline: as §1

[8] = test system: human red blood cells (hRBC); experiment: Hemolysis; conditions: red cells of human, 1 h, 200
Outline: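 Percent hemolysis relative to 2% Triton X-100 (100%) and PBS/10% water (0%), from blank-corrected OD540 of diluted supernatants. Peptides tested at 200 μg/mL against 20% (v/v) washed human erythrocytes, 1 h, 37° C, shaking at 300 rpm.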

Row | SMILES | MIC [1] [µg/mL] | MIC [2] [µg/mL] | MIC [3] [µg/mL] | MIC (Escherichia coli 926415) [µg/mL] | MIC [4] [µg/mL] | MIC [5] [µg/mL] | MIC [6] [µg/mL] | MIC [7] [µg/mL] | Hemolysis at 200 μg/mL [8] [%]
1 | CC(C)C[C@@H]1NC(=O)[C@@H](CC(C)C)NC(=O)[C@H](CCN)NC(=O)[C@@H](NC(=O)[C@H](CCN)NC(=O)[C@@H](NC(=O)[C@H](CCN)NC(=O)CC[C@@H]2NC(=O)[C@@H]3CSSC[C@H](NC(=O)[C@H](Cc4c[nH]c5ccccc45)NC(=O)[C@H](CCO)NC(=O)[C@@H](CCN)NC2=O)C(=O)N[C@@H](C(C)C)C(=O)N[C@H](C(=O)N[C@@H](CO)C(N)=O)CSSC[C@H](NC(=O)[C@@H](N)C(C)C)C(=O)N[C@@H](Cc2ccc(O)cc2)C(=O)N3)[C@@H](C)O)CCNC(=O)[C@H]([C@@H](C)O)NC(=O)[C@H](CCN)NC(=O)[C@H](CCN)NC1=O [Ex. 176] (I: H-VCYCE[dDab][hSer]WCVCS-NH2 / II: [Dab]T[Dab][Dab][Dab][dL]L[Dab][Dab]T; disulfide I:2-I:11, I:4-I:9; amide I:5-II:N; lactam II:4-II:C) | 0.125 (≈ 0.052 µM) | 0.125 (≈ 0.052 µM) | 0.5 (≈ 0.208 µM) | 0.25 (≈ 0.104 µM) | 0.0625 (≈ 0.026 µM) | 0.25 (≈ 0.104 µM) | 0.125 (≈ 0.052 µM) | 0.125 (≈ 0.052 µM) | <1
2 | CC(C)CC(=O)N[C@H]1CSSC[C@@H](C(=O)NC(CO)CO)NC(=O)[C@H](C(C)(C)C)NC(=O)[C@H](CO)NC(=O)[C@H](Cc2c[nH]c3ccccc23)NC(=O)[C@H]([C@@H](C)O)NC(=O)[C@@H](CCN)NC(=O)[C@H](CCC(=O)N[C@@H](CCN)C(=O)N[C@H](C(=O)N[C@@H](CCN)C(=O)N[C@H]2CCNC(=O)[C@H]([C@@H](C)O)NC(=O)[C@H](CCN)NC(=O)[C@H](CCN)NC(=O)[C@H](CC(C)C)NC(=O)[C@@H](CC(C)C)NC(=O)[C@H](CCN)NC2=O)[C@@H](C)O)NC(=O)[C@H](CN)NC(=O)[C@H](Cc2ccc(O)cc2)NC1=O [Example 5] (I: Isovaleryl-CY[Dap]E[dDab]TWS[Tle]C-{NHCH(CH2OH)2} / II: [Dab]T[Dab][Dab][Dab][dL]L[Dab][Dab]T; disulfide I:1-I:10; amide I:4-II:N; lactam II:4-II:C) | 0.125 (≈ 0.053 µM) | 0.0625 (≈ 0.0265 µM) | 0.125 (≈ 0.053 µM) | 0.125 (≈ 0.053 µM) | 0.0625 (≈ 0.0265 µM) | 0.25 (≈ 0.106 µM) | 0.125 (≈ 0.053 µM) | 0.125 (≈ 0.053 µM) | <1
3 | CC(C)C[C@@H]1NC(=O)[C@@H](CC(C)C)NC(=O)[C@H](CCN)NC(=O)[C@@H](NC(=O)[C@H](CCN)NC(=O)[C@@H](NC(=O)[C@H](CCN)NC(=O)CC[C@@H]2NC(=O)[C@H](CCN)NC(=O)[C@H](Cc3ccc(O)cc3)NC(=O)[C@@H](NC(=O)[C@@H](O)C(C)C)CSSC[C@@H](C(=O)N[C@H](CO)[C@@H](C)O)NC(=O)[C@H](C(C)(C)C)NC(=O)CNC(=O)[C@H](Cc3c[nH]c4ccccc34)NC(=O)[C@H](CCO)NC(=O)[C@@H](CCN)NC2=O)[C@@H](C)O)CCNC(=O)[C@H]([C@@H](C)O)NC(=O)[C@H](CCN)NC(=O)[C@H](CCN)NC1=O [Ex. 87] (I: H-[Hiv]CY[Dab]E[dDab][hSer]WG[Tle]C[Thr(ol)] / II: [Dab]T[Dab][Dab][Dab][dL]L[Dab][Dab]T; disulfide I:2-I:11; amide I:5-II:N; lactam II:4-II:C) | 0.25 (≈ 0.105 µM) | 0.0625 (≈ 0.0264 µM) | 2 (≈ 0.844 µM) | 0.0625 (≈ 0.0264 µM) | 0.0625 (≈ 0.0264 µM) | 0.125 (≈ 0.0527 µM) | 0.125 (≈ 0.0527 µM) | 0.125 (≈ 0.0527 µM) | <1
4 | CCC(=O)N[C@H](C(=O)N[C@H]1CSSC[C@@H](C(=O)N[C@@H](CO)C(N)=O)NC(=O)[C@H](C(C)(C)C)NC(=O)[C@H](CO)NC(=O)[C@H](Cc2c[nH]c3ccccc23)NC(=O)[C@H](CO)NC(=O)[C@@H](CCN)NC(=O)[C@H](CCC(=O)N[C@@H](CCN)C(=O)N[C@H](C(=O)N[C@@H](CN)C(=O)N[C@H]2CCNC(=O)[C@H]([C@@H](C)O)NC(=O)[C@H](CCN)NC(=O)[C@H](CCN)NC(=O)[C@H](CC(C)C)NC(=O)[C@@H](CC(C)C)NC(=O)[C@H](CCN)NC2=O)[C@@H](C)O)NC(=O)[C@H](CN)NC(=O)[C@H](Cc2ccc(O)cc2)NC1=O)C(C)C [Ex. 119] (I: Propionyl-VCY[Dap]E[dDab]SWS[Tle]CS-NH2 / II: [Dab]T[Dap][Dab][Dab][dL]L[Dab][Dab]T; disulfide I:2-I:11; amide I:5-II:N; lactam II:4-II:C) | 0.03125 (≈ 0.013 µM) | 0.0625 (≈ 0.0259 µM) | 0.0625 (≈ 0.0259 µM) | 0.0625 (≈ 0.0259 µM) | 0.0625 (≈ 0.0259 µM) | 0.125 (≈ 0.0518 µM) | 0.0625 (≈ 0.0259 µM) | 0.125 (≈ 0.0518 µM) | <1
5 | CC(C)CC(=O)N[C@H]1CSSC[C@@H](C(=O)N[C@H](CO)[C@@H](C)O)NC(=O)[C@H](C(C)(C)C)NC(=O)[C@H](CO)NC(=O)[C@H](Cc2c[nH]c3ccccc23)NC(=O)[C@H]([C@@H](C)O)NC(=O)[C@@H](CCN)NC(=O)[C@H](CCC(=O)N[C@@H](CCN)C(=O)N[C@H](C(=O)N[C@@H](CCN)C(=O)N[C@H]2CCNC(=O)[C@H]([C@@H](C)O)NC(=O)[C@H](CCN)NC(=O)[C@H](CCN)NC(=O)[C@H](CC(C)C)NC(=O)[C@@H](CC(C)C)NC(=O)[C@H](CCN)NC2=O)[C@@H](C)O)NC(=O)[C@H](CN)NC(=O)[C@H](Cc2ccc(O)cc2)NC1=O [Example 4] (I: Isovaleryl-CY[Dap]E[dDab]TWS[Tle]C[Thr(ol)] / II: [Dab]T[Dab][Dab][Dab][dL]L[Dab][Dab]T; disulfide I:1-I:10; amide I:4-II:N; lactam II:4-II:C) | 0.125 (≈ 0.0527 µM) | 0.0625 (≈ 0.0264 µM) | 0.25 (≈ 0.105 µM) | 0.25 (≈ 0.105 µM) | 0.125 (≈ 0.0527 µM) | 0.5 (≈ 0.211 µM) | 0.125 (≈ 0.0527 µM) | 0.125 (≈ 0.0527 µM) | 1
6 | CC(=O)N[C@@H](CCN)C(=O)N[C@H](C(=O)N[C@H]1CSSC[C@@H](C(N)=O)NC(=O)[C@H](C(C)(C)C)NC(=O)[C@H](CO)NC(=O)[C@H](Cc2c[nH]c3ccccc23)NC(=O)[C@H](CO)NC(=O)[C@@H](CCN)NC(=O)[C@H](CCC(=O)N[C@@H](CCN)C(=O)N[C@H](C(=O)N[C@@H](CN)C(=O)N[C@H]2CCNC(=O)[C@H]([C@@H](C)O)NC(=O)[C@H](CCN)NC(=O)[C@H](CCN)NC(=O)[C@H](CC(C)C)NC(=O)[C@@H](CC(C)C)NC(=O)[C@H](CCN)NC2=O)[C@@H](C)O)NC(=O)[C@H](CN)NC(=O)[C@H](Cc2ccc(O)cc2)NC1=O)C(C)C [Ex. 125] (I: Ac-[Dab]VCY[Dap]E[dDab]SWS[Tle]C-NH2 / II: [Dab]T[Dap][Dab][Dab][dL]L[Dab][Dab]T; disulfide I:3-I:12; amide I:6-II:N; lactam II:4-II:C) | 0.125 (≈ 0.0518 µM) | 0.125 (≈ 0.0518 µM) | 0.125 (≈ 0.0518 µM) | 0.0625 (≈ 0.0259 µM) | 0.0625 (≈ 0.0259 µM) | 0.125 (≈ 0.0518 µM) | 0.0625 (≈ 0.0259 µM) | 0.125 (≈ 0.0518 µM) | 2

More lines, main results first:

Row | MIC [1] [µg/mL] | MIC [2] [µg/mL] | MIC [3] [µg/mL] | MIC (Escherichia coli 926415) [µg/mL] | MIC [4] [µg/mL] | MIC [5] [µg/mL] | MIC [6] [µg/mL] | MIC [7] [µg/mL] | SMILES | Hemolysis at 200 μg/mL [8] [%]
7 | 2 (≈ 0.819 µM) | 1 (≈ 0.41 µM) | 2 (≈ 0.819 µM) | 2 (≈ 0.819 µM) | 0.25 (≈ 0.102 µM) | 4 (≈ 1.64 µM) | 0.25 (≈ 0.102 µM) | 0.25 (≈ 0.102 µM) | CC(=O)N[C@H](C(=O)N[C@H]1CSSC[C@@H](C(=O)N[C@@H](CO)C(=O)O)NC(=O)[C@H](C(C)(C)C)NC(=O)[C@H](CO)NC(=O)[C@H](Cc2c[nH]c3ccccc23)NC(=O)[C@H]([C@@H](C)O)NC(=O)[C@@H](CCN)NC(=O)[C@H](CCC(=O)N[C@@H](CCN)C(=O)N[C@H](C(=O)N[C@@H](CCN)C(=O)N[C@H]2CCNC(=O)[C@H]([C@@H](C)O)NC(=O)[C@H](CCN)NC(=O)[C@H](CCN)NC(=O)[C@H](CC(C)C)NC(=O)[C@@H](CC(C)C)NC(=O)[C@H](CCN)NC2=O)[C@@H](C)O)NC(=O)[C@H](CCN)NC(=O)[C@H](Cc2ccc(O)cc2)NC1=O)C(C)C [Ex. 52] (I: Ac-VCY[Dab]E[dDab]TWS[Tle]CS-OH / II: [Dab]T[Dab][Dab][Dab][dL]L[Dab][Dab]T; disulfide I:2-I:11; amide I:5-II:N; lactam II:4-II:C) | <1
8 | 0.0625 (≈ 0.026 µM) | 0.03125 (≈ 0.013 µM) | 0.125 (≈ 0.0521 µM) | 0.0625 (≈ 0.026 µM) | 0.03125 (≈ 0.013 µM) | 0.125 (≈ 0.0521 µM) | 0.125 (≈ 0.0521 µM) | 0.125 (≈ 0.0521 µM) | CC(=O)N[C@H](C(=O)N[C@H]1CSSC[C@@H](C(=O)N[C@@H](CO)C(N)=O)NC(=O)[C@H](C(C)(C)C)NC(=O)[C@H](CO)NC(=O)[C@H](Cc2c[nH]c3ccccc23)NC(=O)[C@H](CO)NC(=O)[C@@H](CCN)NC(=O)[C@H](CCC(=O)N[C@@H](CCN)C(=O)N[C@H](C(=O)N[C@@H](CN)C(=O)N[C@H]2CCNC(=O)[C@H]([C@@H](C)O)NC(=O)[C@H](CCN)NC(=O)[C@H](CCN)NC(=O)[C@H](CC(C)C)NC(=O)[C@@H](CC(C)C)NC(=O)[C@H](CCN)NC2=O)[C@@H](C)O)NC(=O)[C@H](CO)NC(=O)[C@H](Cc2ccc(O)cc2)NC1=O)C(C)C [Ex. 132] (I: Ac-VCYSE[dDab]SWS[Tle]CS-NH2 / II: [Dab]T[Dap][Dab][Dab][dL]L[Dab][Dab]T; disulfide I:2-I:11; amide I:5-II:N; lactam II:4-II:C) | 2
